IC50 data for 32 compounds are collected here from BindingDB's records for doi:10.1016/j.bmcl.2005.12.017 (Abbott Laboratories, 2006).

T1 sequence (P31749 139-480 S378A/S381A/T450D/S473D): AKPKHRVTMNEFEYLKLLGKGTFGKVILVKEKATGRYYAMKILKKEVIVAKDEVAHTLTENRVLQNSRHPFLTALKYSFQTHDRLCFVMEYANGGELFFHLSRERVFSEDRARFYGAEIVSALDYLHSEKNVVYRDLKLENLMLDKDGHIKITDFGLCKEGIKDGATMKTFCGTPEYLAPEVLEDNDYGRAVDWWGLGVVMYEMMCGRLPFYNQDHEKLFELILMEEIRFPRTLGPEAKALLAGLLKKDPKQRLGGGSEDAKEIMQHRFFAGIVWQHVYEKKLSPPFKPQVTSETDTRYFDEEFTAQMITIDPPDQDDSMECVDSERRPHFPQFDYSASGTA

The first assay addresses T1, RAC-alpha serine/threonine-protein kinase [139-480,S378A,S381A,T450D,S473D] (Homo sapiens, UniProt P31749, S378A/S381A/S473D/T450D).
T1 construct: 139-480
The assay is described as follows: Akt Kinase Assay.
Conditions: not given
The procedure: The kinase assay uses His-Akt1 and a biotinylated peptide as substrate. The biotinylated peptides were immobilized on streptavidin-coated FLASH plates. After reaction, the 33P-phosphopeptide captured on the FLASH plates was measured with a TopCount Packard Instruments […] (Packard Instruments, Boston, MA).
Compound `N[C@H](COc1cncc(/C=C/c2ccnc(-n3ccc4ccccc43)c2)c1)Cc1c[nH]c2ccccc12` [1-{4-[(E)-2-{5-[(2S)-2-amino-3-(1H-indol-3-yl)propoxy]pyridin-3-yl}ethenyl]pyridin-2-yl}-1H-indole] displayed an IC50 of 3340 nM.

`N[C@H](COc1ccc(/C=C/c2ccncc2)cn1)Cc1ccccc1` [2-[(2S)-2-amino-3-phenylpropoxy]-5-[(E)-2-(pyridin-4-yl)ethenyl]pyridine] came in with a half-inhibitory concentration (IC50) of 43000 nM.

Take `NCC(c1ccccc1)c1cncc(/C=C/c2ccncc2)c1` (configuration not stated) [2-phenyl-2-{5-[(E)-2-(pyridin-4-yl)ethenyl]pyridin-3-yl}ethan-1-amine]: the half-inhibitory concentration (IC50) stood at 284 nM.

Turning to `N[C@H](COc1cncc(/C=C/c2ccncc2)c1)Cc1csc2ccccc12` [3-[(2S)-2-amino-3-(1-benzothiophen-3-yl)propoxy]-5-[(E)-2-(pyridin-4-yl)ethenyl]pyridine], the IC50 came out at 142 nM.

In turn, `COc1cc(/C=C/c2cncc(OC[C@@H](N)Cc3c[nH]c4ccccc34)c2)ccn1` [3-[(2S)-2-amino-3-({5-[(E)-2-(2-methoxypyridin-4-yl)ethenyl]pyridin-3-yl}oxy)propyl]-1H-indole] registered an IC50 of 2670 nM.

With `N[C@H](COc1cncc(/C=C/c2ccnc(Oc3ccccc3)c2)c1)Cc1c[nH]c2ccccc12` [3-[(2S)-2-amino-3-({5-[(E)-2-(2-phenoxypyridin-4-yl)ethenyl]pyridin-3-yl}oxy)propyl]-1H-indole], the half-maximal inhibitory concentration (IC50) is 6450 nM.

Turning to `Cn1cc(C[C@H](N)COc2cncc(/C=C/c3ccncc3)c2)c2ccccc21` [3-[(2S)-2-amino-3-({5-[(E)-2-(pyridin-4-yl)ethenyl]pyridin-3-yl}oxy)propyl]-1-methyl-1H-indole], the 50% inhibitory concentration (IC50) came to 500 nM.

`N[C@H](COc1cncc(/C=C/c2ccnc(SCc3ccccc3)c2)c1)Cc1c[nH]c2ccccc12` [3-[(2S)-2-amino-3-({5-[(E)-2-[2-(benzylsulfanyl)pyridin-4-yl]ethenyl]pyridin-3-yl}oxy)propyl]-1H-indole] showed an IC50 of 3110 nM.

The compound `N[C@H](COc1cncc(/C=C/c2ccnc(Sc3ccccc3)c2)c1)Cc1c[nH]c2ccccc12` [3-[(2S)-2-amino-3-({5-[(E)-2-[2-(phenylsulfanyl)pyridin-4-yl]ethenyl]pyridin-3-yl}oxy)propyl]-1H-indole] displayed a half-maximal inhibitory concentration (IC50) of 6350 nM.

The compound `N[C@H](COc1cccc(/C=C/c2ccncc2)n1)Cc1c[nH]c2ccccc12` [3-[(2S)-2-amino-3-({6-[(E)-2-(pyridin-4-yl)ethenyl]pyridin-2-yl}oxy)propyl]-1H-indole] gave a half-inhibitory concentration (IC50) of 23300 nM.

On to `N[C@H](COc1cnc(Cl)c(/C=C/c2ccncc2)c1)Cc1c[nH]c2ccccc12` [3-[(2S)-2-amino-3-({6-chloro-5-[(E)-2-(pyridin-4-yl)ethenyl]pyridin-3-yl}oxy)propyl]-1H-indole], for which the midpoint of inhibition, the IC50, lay at 23 nM.

Regarding `N[C@H](COc1cncc(/C=C/c2ccnc(NCc3ccccc3)c2)c1)Cc1c[nH]c2ccccc12` [4-[(E)-2-{5-[(2S)-2-amino-3-(1H-indol-3-yl)propoxy]pyridin-3-yl}ethenyl]-N-benzylpyridin-2-amine], the IC50 stood at 147 nM.

`N[C@H](COc1cncc(/C=C/c2ccnc(NC3CC3)c2)c1)Cc1c[nH]c2ccccc12` [4-[(E)-2-{5-[(2S)-2-amino-3-(1H-indol-3-yl)propoxy]pyridin-3-yl}ethenyl]-N-cyclopropylpyridin-2-amine] returned an IC50 of 69 nM.

`CCNc1cc(/C=C/c2cncc(OC[C@@H](N)Cc3c[nH]c4ccccc34)c2)ccn1` [4-[(E)-2-{5-[(2S)-2-amino-3-(1H-indol-3-yl)propoxy]pyridin-3-yl}ethenyl]-N-ethylpyridin-2-amine] had an IC50 of 163 nM.

Regarding `CNc1cc(/C=C/c2cncc(OC[C@@H](N)Cc3c[nH]c4ccccc34)c2)ccn1` [4-[(E)-2-{5-[(2S)-2-amino-3-(1H-indol-3-yl)propoxy]pyridin-3-yl}ethenyl]-N-methylpyridin-2-amine], the IC50 amounted to 176 nM.

Compound `Nc1cc(/C=C/c2cncc(OC[C@@H](N)Cc3c[nH]c4ccccc34)c2)ccn1` [4-[(E)-2-{5-[(2S)-2-amino-3-(1H-indol-3-yl)propoxy]pyridin-3-yl}ethenyl]pyridin-2-amine] displayed an IC50 of 121 nM.

Take `N[C@H](CCc1cnc(Cl)c(/C=C/c2ccncc2)c1)Cc1c[nH]c2ccccc12` [(2R)-4-{6-chloro-5-[(E)-2-(pyridin-4-yl)ethenyl]pyridin-3-yl}-1-(1H-indol-3-yl)butan-2-amine]: half-maximal inhibition (IC50) required 198 nM.

`N[C@@H](Cc1ccccc1)C(=O)Nc1cncc(/C=C/c2ccncc2)c1` [(2S)-2-amino-3-phenyl-N-{5-[(E)-2-(pyridin-4-yl)ethenyl]pyridin-3-yl}propanamide] gave a concentration for half-maximal inhibition (IC50) of 3200 nM.

Turning to `N[C@H](CNc1cncc(/C=C/c2ccncc2)c1)Cc1c[nH]c2ccccc12` [N-[(2S)-2-amino-3-(1H-indol-3-yl)propyl]-5-[(E)-2-(pyridin-4-yl)ethenyl]pyridin-3-amine], half-maximal inhibition (IC50) was put at 9.7 nM.

Compound `N[C@H](CNc1cnc(Cl)c(/C=C/c2ccncc2)c1)Cc1c[nH]c2ccccc12` [N-[(2S)-2-amino-3-(1H-indol-3-yl)propyl]-6-chloro-5-[(E)-2-(pyridin-4-yl)ethenyl]pyridin-3-amine] gave an IC50 of 19 nM.

`N[C@H](CNc1cnc(Cl)c(/C=C/c2ccncc2)c1)CC1CNc2ccccc21` (stereo partly drawn) [N-[(2S)-2-amino-3-(2,3-dihydro-1H-indol-3-yl)propyl]-6-chloro-5-[(E)-2-(pyridin-4-yl)ethenyl]pyridin-3-amine] had a half-maximal inhibitory concentration (IC50) of 79 nM.

In turn, `Brc1ccc(/C=C/CNCCOc2cncc(/C=C/c3ccncc3)c2)cc1` [[(2E)-3-(4-bromophenyl)prop-2-en-1-yl][2-({5-[(E)-2-(pyridin-4-yl)ethenyl]pyridin-3-yl}oxy)ethyl]amine] showed a half-inhibitory concentration (IC50) of 32200 nM.

With `CN(C)[C@H](COc1cncc(/C=C/c2ccncc2)c1)Cc1c[nH]c2ccccc12` [[(2S)-1-(1H-indol-3-yl)-3-({5-[(E)-2-(pyridin-4-yl)ethenyl]pyridin-3-yl}oxy)propan-2-yl]dimethylamine], the IC50 stood at 1100 nM.

The same assay, now with this note: pH 7.5; 22 °C.
The compound `N[C@H](COc1cncc(/C=C/c2ccncc2)c1)C(c1ccccc1)c1ccccc1` [3-[(2S)-2-amino-3,3-diphenylpropoxy]-5-[(E)-2-(pyridin-4-yl)ethenyl]pyridine] returned an IC50 of 6760 nM.

In turn, `N[C@H](COc1cncc(/C=C/c2ccncc2)c1)Cc1cccc2ccccc12` [3-[(2S)-2-amino-3-(naphthalen-1-yl)propoxy]-5-[(E)-2-(pyridin-4-yl)ethenyl]pyridine] yielded an IC50 of 324 nM.

Compound `N[C@H](COc1cncc(/C=C/c2ccncc2)c1)Cc1ccc2ccccc2c1` [3-[(2S)-2-amino-3-(naphthalen-2-yl)propoxy]-5-[(E)-2-(pyridin-4-yl)ethenyl]pyridine] registered a half-maximal inhibitory concentration (IC50) of 146 nM.

Consider `N#Cc1cccc(C[C@H](N)COc2cncc(/C=C/c3ccncc3)c2)c1` [3-[(2S)-2-amino-3-({5-[(E)-2-(pyridin-4-yl)ethenyl]pyridin-3-yl}oxy)propyl]benzonitrile], for which the IC50 worked out at 320 nM.

`N[C@H](COc1cncc(/C=C/c2ccncc2)c1)Cc1cccc(O)c1` [3-[(2S)-2-amino-3-({5-[(E)-2-(pyridin-4-yl)ethenyl]pyridin-3-yl}oxy)propyl]phenol] returned an IC50 of 875 nM.

`CC(C)[C@H](N)COc1cncc(/C=C/c2ccncc2)c1` [3-[(2S)-2-amino-3-methylbutoxy]-5-[(E)-2-(pyridin-4-yl)ethenyl]pyridine]: the IC50 was determined as 19300 nM.

Consider `N[C@@H](CCc1ccccc1)COc1cncc(/C=C/c2ccncc2)c1` [3-[(2S)-2-amino-4-phenylbutoxy]-5-[(E)-2-(pyridin-4-yl)ethenyl]pyridine], for which half-maximal inhibition (IC50) required 8020 nM.

The compound `C(=C\c1cncc(OC[C@@H]2CCN2)c1)/c1ccncc1` [3-[(2S)-azetidin-2-ylmethoxy]-5-[(E)-2-(pyridin-4-yl)ethenyl]pyridine] displayed a half-inhibitory concentration (IC50) of 10900 nM.

`C(=C\c1cncc(OC[C@@H]2CCCN2)c1)/c1ccncc1` [3-[(E)-2-(pyridin-4-yl)ethenyl]-5-[(2S)-pyrrolidin-2-ylmethoxy]pyridine] returned an IC50 of 23900 nM.

For orientation: IC50 means the concentration needed to halve the response being measured. A higher IC50 goes with weaker potency.
